Experimental data: US20090227492A1, “TREATMENT OF NEUROLOGICAL CONDITIONS USING COMPLEMENT C5a RECEPTOR MODULATORS” (priority 2004, published 2009)
Bridge positions count the residues as written; N and C are the ends. Square brackets hold non-standard residues; d marks the D form. Peptide text beside a SMILES is read from it. * marks the point of attachment. Hydrocinnamoyl = O=C(CCc1ccccc1)*; Cit = NC(=O)NCCC[C@H](N)C(=O)O; dCha = N[C@H](CC1CCCCC1)C(=O)O; Orn = NCCC[C@H](N)C(=O)O

Columns and labels:
3-NP rat model [1] = assay: 3-NP rat model (3-nitropropionic acid neurotoxicity); assay type: in vivo
Method: Unless otherwise stated, the protocol for induction of 3-NP neurotoxicity employed in the present study was similar to that of Blum et al (2001; 2002), except that we used 42 mg/kg/day for 7 days rather than 56 mg/kg for 5 days. Briefly, a 90 mg/mL solution of 3-NP in PBS (0.1 M, pH 7.4) was prepared and adjusted to pH 7.4 with 5M NaOH. Alzet osmotic mini-pumps (model 2ML1, delivering 10 μL/hr for 7 days) filled with this solution were implanted into 12 week old male Lewis rats, so that each rat received exactly 42 mg/kg/day.
Rats were housed in individual cages. The rats were anaesthetised with ketamine, xylazine and zolazapam. A pump was inserted s.c. into the back of each rat via an incision between the scapulae, and the incision closed with wound clips. Following recovery from anaesthesia, food intake, body weight and neurological were evaluated daily over the next 7 days. Neurological and behavioural evaluation according to standard criteria was also performed at several points by an observer blinded to the identity of the groups.
After completion of the study, rats were deeply anaesthetised with xylazine and ketamine. The rats were then perfused with approximately 100 mL of sodium nitrite solution to remove blood, followed by approximately 400 mL of formaldehyde solution to fix the brains in situ. Brains were then carefully removed and stored in formaldehyde solution for at least 3 days, before processing for histology. Slides were stained with cresyl violet and examined by light microscopy. […]
PMX53 (10 mg/kg/day) and PMX205 (10 mg/kg/day) were administered daily by gavage and ibuprofen (30 mg/kg/day) administered in the drinking water, beginning 2 days prior to 3-NP administration. Infliximab was administered as a single 5 mg/kg i.v. infusion on Day 0. […]

3-NP rat model [2] = assay: histological and histochemical examination of rat brain sections from the 3-NP model (naphthyl esterase, TUNEL); assay type: in vivo; conditions: brain sections of rats of Example 2
Excerpt: Paraffin sections of brain tissue from the rats used in Example 2 were stained with hematoxylin and eosin and examined under the microscope. […] The TUNEL (TdT-mediated dUTP Nick-End Labeling) assay (Gavrieli, Y., et al. (1992) J. Cell. Biol. 119, 493.) measures nuclear DNA fragmentation, which is an important biochemical hallmark of apoptosis. […] Brain sections were therefore also stained for TUNEL analysis using a standard kit (ApopTag Plus/TUNEL method; Chemicon). Striatal sections of brains containing the area of interest were fixed to a slide and deparaffinized. Slides were then pretreated with Proteinase K (20 μg/mL), and endogenous peroxidases quenched with 3% hydrogen peroxide. Equilibration buffer was then added, followed by TdT enzyme for 1 hour. Samples were then washed, and anti-digoxigenin conjugate added for 30 min. Peroxidase substrate (diaminobenzidine) was then added, and colour allowed to develop over 6 min. Samples were then counterstained with 0.5% methyl green and mounted with Permount. Sections were washed in PBS (0.1 M, ph 7.4) in between each step.

[3] = test system: Transgenic Sprague-Dawley rats carrying mutant SOD-1 gene; assay: transgenic SOD-1 rat model of ALS; assay type: in vivo; conditions: approximately 1 mg/kg/day in drinking water from 70 days of age; for average age of onset of loss of motor function: male rats, untreated 116+/−4 days; for percent survival over time (mortality) / percentage of rats showing onset of motor symptoms over time: vs untreated
Method: Treatment commenced when the rats were 70 days of age. Drugs were dosed in the drinking water at approximately 1 mg/kg/day. A group of 3 wild type (WT) Sprague-Dawley rats (G63) were included as sham control animals. Rats were then monitored daily for signs of motor disturbance, using the following scale:
Body weights were also recorded daily. Rats were euthanised when they reached a score of 4 for the righting response, or had lost >20% of their peak body weight.

[4] = levels of PMX compounds in brain and plasma following i.v. injection (blood-brain barrier); conditions: female Wistar rats; 3 mg/kg i.v.; 15 min; brain perfused with saline
Method: Rats were then left for 15 min, at which point a sample of blood was taken from the tail for plasma collection, and rats were then perfused via cardiac puncture with 150 mL of saline to remove blood from the brain. The brain was then dissected out. Plasma and brain samples of were prepared for pharmacokinetic analysis, and the levels of PMX compounds determined in each sample.

[5] = Example 2, PMX53, PMX205 10 mg/kg/day gavage, ibuprofen 30 mg/kg/day drinking water, infliximab 5 mg/kg i.v. Day 0, 7 days

Compound | neurological/behavioural score (3-NP rat model [1]; [5]) | degree of apoptosis (TUNEL) (3-NP rat model [2]) | neutrophil infiltration (naphthyl esterase stain) (3-NP rat model [2]) | average age of onset of loss of motor function [3] [days] | percent survival over time (mortality) [3] | percentage of rats showing onset of motor symptoms over time [3] | also measured
CC(=O)N[C@@H](Cc1ccccc1)C(=O)N[C@H]1CCCNC(=O)[C@H](CCCNC(=N)N)NC(=O)[C@H](Cc2c[nH]c3ccccc23)NC(=O)[C@@H](CC2CCCCC2)NC(=O)[C@@H]2CCCN2C1=O [PMX53, AcPhe[Orn-Pro-D-Cyclohexylalanine-Trp-Arg]] | significant protection | reduced the degree of apoptosis | completely prevented neutrophil infiltration | 124 ± 10 | possibly a small improvement | possibly a small improvement | loss of body weight (3-NP rat model [1]; Example 1 pilot, 2 mg/kg daily in drinking water plus 1 mg/kg s.c. Days 0, 3, 6, 8, Days 5-7, P<0.05, n=5, vs untreated): significantly less loss of body weight; neurological/behavioural score (3-NP rat model [1]; Example 1 pilot, 2 mg/kg daily in drinking water plus 1 mg/kg s.c., Days 4-9, P<0.05, n=5, vs untreated): significantly decreased neurological/behavioural scores; food intake (3-NP rat model [1]; Example 1 pilot, 2 mg/kg daily in drinking water plus 1 mg/kg s.c., Days 5-7, P<0.05, n=5, vs untreated): significantly greater food intake; necrotic cells in the striatal regions (cresyl violet histology) (3-NP rat model [1]; Example 1 pilot, vs controls): fewer necrotic cells; necrotic cells in the striatal regions (cresyl violet histology) (3-NP rat model [1]; Example 2, 10 mg/kg/day gavage, day 7): fewer necrotic cells
CC(C)Cc1ccc(C(C)C(=O)O)cc1 (stereo not drawn) [ibuprofen, reference compound] | an effect only up to Day 5 | – | – | – | – | – | –
infliximab [reference compound] | little if any effect | – | – | – | – | – | –
N=C(N)NCCC[C@@H]1NC(=O)[C@H](Cc2c[nH]c3ccccc23)NC(=O)[C@@H](CC2CCCCC2)NC(=O)[C@@H]2CCCN2C(=O)[C@@H](NC(=O)CCc2ccccc2)CCCNC1=O [PMX205, Hydrocinnamate-[OpdChaWR]] (Hydrocinnamoyl-[Orn]P[dCha]WR; lactam 1-C) | significant protection | reduced the degree of apoptosis | completely prevented neutrophil infiltration | 138 ± 7 | clear delay of mortality | clear delay of motor onset | period between the first loss of body weight and the first observable loss of motor function [3]: particularly striking
NC(=O)NCCC[C@@H]1NC(=O)[C@H](Cc2c[nH]c3ccccc23)NC(=O)[C@@H](CC2CCCCC2)NC(=O)[C@@H]2CCCN2C(=O)[C@@H](NC(=O)CCc2ccccc2)CCCNC1=O [PMX200, HC-[OPdChaWCit]] (Hydrocinnamoyl-[Orn]P[dCha]W[Cit]; lactam 1-C) | – | – | – | – | – | – | levels in the brain as a percentage of the levels in the blood (absorption into the brain) [4]: lower degree of absorption
